Columns and labels:
[1] = molecular target: T1, 9° N™ (exo-)/A485L DNA polymerase (Thermococcus sp., UniProt Q56366, A485L/D141A/E143A); assay type: biochemical, Thermococcus sp. 9° N-7
T1 construct: made in house
Procedure: (§1) The 2X cocktail was split in half and 9° N™ (exo-)/A485L DNA polymerase or Thermo Sequenase™ was added to a final concentration of 0.04 U/μl. […] Reactions were thermal cycled as follows: • 94° C. 5 minutes • 25 cycles at: • 94° C. 30 seconds • 55° C. 30 seconds • 72° C. 30 seconds • 72° C. 7 minutes

[2] = molecular target: herpes virus type 2 (HSV-2) DNA polymerase (Human herpesvirus 2, UniProt P89453); settings: Reid, et al.; cited from earlier work
[3] = molecular target: human cytomegalovirus (HCMV) DNA polymerase (Human cytomegalovirus, UniProt P08546); settings: Reid, et al.; cited from earlier work
[4] = test system: Thermo Sequenase™ DNA polymerase; assay: Titration assay of chain terminator incorporation by Thermo Sequenase; assay type: biochemical; settings: FIG. 9
Procedure: Samples were then heated at 72° C. for 3 minutes and separated on a QuickPoint DNA sequencing gel (NOVEX, San Diego, Calif.) run at 1200 volts. The gel was fixed by soaking in 10% acetic acid/10% ethanol, dried, and polymerization products visualized by autoradiography.
In a related experiment dye-acyclo-CTP incorporation by the analogous […] variant was evaluated.
as §1

[5] = molecular target: human DNA polymerase alpha (Homo sapiens, UniProt P09884); settings: Reid, et al.; cited from earlier work
[6] = molecular target: T2, Vent® (exo-)/A488L DNA polymerase (Thermococcus litoralis, UniProt P30317, A488L/D141A/DEL1082-1471/DEL495-1032/E143A); assay type: biochemical; settings: Vent (exo-)/A488L vs Vent (exo-); FIG. 6
T2 construct: made in house

T1 sequence (Q56366 whole entry D141A/E143A/A485L): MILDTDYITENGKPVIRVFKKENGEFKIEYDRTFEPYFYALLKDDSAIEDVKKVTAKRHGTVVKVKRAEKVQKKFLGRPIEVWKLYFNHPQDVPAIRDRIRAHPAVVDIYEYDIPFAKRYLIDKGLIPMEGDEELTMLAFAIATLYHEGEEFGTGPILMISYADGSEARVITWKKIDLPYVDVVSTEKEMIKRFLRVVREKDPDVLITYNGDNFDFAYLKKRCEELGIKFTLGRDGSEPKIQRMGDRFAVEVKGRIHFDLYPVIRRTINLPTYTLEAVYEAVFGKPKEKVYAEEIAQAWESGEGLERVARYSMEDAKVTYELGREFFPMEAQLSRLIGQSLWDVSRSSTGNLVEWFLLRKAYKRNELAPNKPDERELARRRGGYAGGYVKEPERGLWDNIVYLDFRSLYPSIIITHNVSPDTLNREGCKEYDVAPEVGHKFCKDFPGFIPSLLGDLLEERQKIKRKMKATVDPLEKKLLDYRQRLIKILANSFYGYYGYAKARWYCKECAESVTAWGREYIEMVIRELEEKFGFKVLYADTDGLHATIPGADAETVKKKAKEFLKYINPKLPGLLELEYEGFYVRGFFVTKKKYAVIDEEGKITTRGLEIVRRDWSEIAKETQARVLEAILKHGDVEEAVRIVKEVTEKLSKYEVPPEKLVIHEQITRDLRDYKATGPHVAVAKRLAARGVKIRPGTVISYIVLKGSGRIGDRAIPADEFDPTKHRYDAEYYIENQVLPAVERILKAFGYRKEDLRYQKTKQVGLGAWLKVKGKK
human DNA polymerase alpha, sequence (P09884 whole entry): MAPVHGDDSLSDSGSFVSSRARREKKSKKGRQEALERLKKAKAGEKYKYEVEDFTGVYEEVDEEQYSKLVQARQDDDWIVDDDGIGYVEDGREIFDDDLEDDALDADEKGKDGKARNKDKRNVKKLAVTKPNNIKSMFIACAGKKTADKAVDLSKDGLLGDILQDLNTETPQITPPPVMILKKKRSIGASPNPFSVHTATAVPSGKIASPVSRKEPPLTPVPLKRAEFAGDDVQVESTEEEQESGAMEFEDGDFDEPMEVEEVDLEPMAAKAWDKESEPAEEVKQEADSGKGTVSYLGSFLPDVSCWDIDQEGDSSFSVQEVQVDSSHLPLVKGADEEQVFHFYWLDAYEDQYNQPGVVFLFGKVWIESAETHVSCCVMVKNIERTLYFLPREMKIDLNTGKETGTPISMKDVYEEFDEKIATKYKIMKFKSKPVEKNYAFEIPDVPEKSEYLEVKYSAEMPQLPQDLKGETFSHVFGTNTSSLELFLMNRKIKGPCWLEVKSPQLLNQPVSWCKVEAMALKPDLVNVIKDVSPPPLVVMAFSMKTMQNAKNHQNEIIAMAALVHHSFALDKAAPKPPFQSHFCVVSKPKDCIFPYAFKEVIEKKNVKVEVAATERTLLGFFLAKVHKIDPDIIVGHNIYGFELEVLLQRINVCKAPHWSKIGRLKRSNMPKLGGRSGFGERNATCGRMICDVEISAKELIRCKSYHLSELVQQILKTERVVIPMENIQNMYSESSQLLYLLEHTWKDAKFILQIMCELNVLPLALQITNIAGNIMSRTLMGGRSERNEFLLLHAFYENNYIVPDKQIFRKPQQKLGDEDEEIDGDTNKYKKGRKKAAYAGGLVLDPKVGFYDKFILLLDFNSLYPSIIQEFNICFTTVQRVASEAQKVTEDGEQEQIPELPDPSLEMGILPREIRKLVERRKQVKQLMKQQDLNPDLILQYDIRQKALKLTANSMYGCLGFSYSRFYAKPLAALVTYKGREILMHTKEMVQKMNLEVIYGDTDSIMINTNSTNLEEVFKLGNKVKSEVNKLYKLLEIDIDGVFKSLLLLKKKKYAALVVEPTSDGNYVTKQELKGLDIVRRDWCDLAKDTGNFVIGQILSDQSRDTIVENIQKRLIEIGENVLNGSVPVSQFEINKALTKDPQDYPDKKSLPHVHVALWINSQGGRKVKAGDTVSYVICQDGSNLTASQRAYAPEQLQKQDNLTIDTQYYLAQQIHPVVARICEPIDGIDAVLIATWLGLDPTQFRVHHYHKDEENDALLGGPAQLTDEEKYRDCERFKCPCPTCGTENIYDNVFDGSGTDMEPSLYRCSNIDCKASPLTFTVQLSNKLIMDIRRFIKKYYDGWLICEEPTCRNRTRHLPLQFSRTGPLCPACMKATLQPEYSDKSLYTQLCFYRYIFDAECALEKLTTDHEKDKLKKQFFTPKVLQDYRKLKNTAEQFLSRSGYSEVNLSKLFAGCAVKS
human DNA polymerase alpha, sequence (Q14181 whole entry partner): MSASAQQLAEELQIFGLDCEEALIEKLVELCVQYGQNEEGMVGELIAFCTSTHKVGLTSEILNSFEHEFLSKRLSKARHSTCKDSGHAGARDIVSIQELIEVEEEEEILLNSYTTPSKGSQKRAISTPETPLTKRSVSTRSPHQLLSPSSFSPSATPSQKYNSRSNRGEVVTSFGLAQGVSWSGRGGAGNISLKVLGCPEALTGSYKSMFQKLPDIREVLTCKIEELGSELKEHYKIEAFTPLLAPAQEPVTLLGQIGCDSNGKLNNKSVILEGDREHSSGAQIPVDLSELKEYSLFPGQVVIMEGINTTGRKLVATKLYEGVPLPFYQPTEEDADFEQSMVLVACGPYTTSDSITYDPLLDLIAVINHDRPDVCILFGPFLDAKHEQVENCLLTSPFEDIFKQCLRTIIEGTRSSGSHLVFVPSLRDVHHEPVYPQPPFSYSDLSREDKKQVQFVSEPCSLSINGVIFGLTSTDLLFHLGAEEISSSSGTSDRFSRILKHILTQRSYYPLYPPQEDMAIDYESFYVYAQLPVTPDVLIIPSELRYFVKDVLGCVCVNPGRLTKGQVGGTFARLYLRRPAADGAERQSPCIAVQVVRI
human DNA polymerase alpha, sequence (P49642 whole entry partner): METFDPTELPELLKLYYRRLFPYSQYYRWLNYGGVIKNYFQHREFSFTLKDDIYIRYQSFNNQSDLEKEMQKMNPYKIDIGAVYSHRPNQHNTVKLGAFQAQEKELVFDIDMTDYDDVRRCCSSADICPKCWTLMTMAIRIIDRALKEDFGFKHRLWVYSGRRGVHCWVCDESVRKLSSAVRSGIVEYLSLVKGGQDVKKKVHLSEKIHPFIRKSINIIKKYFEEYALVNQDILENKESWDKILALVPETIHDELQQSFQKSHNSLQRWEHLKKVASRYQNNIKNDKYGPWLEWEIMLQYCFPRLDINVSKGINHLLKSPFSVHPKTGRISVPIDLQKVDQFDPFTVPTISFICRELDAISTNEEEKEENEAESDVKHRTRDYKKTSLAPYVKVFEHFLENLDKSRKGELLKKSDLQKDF
human DNA polymerase alpha, sequence (P49643 whole entry partner): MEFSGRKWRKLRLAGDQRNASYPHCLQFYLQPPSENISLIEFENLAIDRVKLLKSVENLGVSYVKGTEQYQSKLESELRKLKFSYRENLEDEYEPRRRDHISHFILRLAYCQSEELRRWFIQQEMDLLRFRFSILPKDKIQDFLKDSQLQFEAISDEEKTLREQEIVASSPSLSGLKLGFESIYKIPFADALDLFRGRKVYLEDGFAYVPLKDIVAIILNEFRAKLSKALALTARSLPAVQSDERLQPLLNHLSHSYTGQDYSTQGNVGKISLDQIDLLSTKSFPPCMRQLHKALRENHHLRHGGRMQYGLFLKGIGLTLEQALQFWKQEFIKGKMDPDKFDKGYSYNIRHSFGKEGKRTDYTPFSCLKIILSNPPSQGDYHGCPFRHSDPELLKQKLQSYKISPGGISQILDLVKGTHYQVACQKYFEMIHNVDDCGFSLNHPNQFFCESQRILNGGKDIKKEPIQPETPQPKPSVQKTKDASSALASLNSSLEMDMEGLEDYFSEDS
herpes virus type 2 (HSV-2) DNA polymerase, sequence (P89453 whole entry): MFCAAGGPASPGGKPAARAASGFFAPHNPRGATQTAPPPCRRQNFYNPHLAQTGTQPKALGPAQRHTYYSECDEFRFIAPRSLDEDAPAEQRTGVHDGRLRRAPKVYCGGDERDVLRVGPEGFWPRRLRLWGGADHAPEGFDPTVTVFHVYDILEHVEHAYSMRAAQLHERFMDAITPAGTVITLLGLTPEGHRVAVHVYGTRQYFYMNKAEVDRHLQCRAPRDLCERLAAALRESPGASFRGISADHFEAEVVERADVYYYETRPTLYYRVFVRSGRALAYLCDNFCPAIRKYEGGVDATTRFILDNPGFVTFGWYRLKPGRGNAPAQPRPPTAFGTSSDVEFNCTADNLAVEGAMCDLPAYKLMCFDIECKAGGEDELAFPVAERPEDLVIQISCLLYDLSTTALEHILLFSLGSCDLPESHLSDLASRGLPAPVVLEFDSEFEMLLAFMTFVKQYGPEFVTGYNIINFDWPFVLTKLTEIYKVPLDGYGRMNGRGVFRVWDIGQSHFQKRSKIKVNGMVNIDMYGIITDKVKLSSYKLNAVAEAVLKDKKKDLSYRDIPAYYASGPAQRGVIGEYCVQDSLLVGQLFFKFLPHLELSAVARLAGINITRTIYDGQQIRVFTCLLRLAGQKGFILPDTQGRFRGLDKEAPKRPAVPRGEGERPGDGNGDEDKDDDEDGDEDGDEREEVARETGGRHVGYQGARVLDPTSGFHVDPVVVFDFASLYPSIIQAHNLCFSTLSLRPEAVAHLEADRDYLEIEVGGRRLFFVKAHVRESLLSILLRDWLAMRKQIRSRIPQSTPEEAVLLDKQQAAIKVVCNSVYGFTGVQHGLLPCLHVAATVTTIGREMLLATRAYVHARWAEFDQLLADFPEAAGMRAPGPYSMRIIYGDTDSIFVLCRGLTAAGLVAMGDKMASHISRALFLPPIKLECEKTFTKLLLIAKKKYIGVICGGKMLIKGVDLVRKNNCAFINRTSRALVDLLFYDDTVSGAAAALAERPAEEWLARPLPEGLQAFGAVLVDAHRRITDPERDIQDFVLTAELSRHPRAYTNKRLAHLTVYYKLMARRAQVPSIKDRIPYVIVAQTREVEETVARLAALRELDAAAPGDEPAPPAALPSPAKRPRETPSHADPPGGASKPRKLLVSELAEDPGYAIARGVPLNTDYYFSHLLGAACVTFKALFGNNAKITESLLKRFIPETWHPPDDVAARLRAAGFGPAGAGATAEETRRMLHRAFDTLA

Nc1nc2c(ncn2COCCOP(=O)(O)OP(=O)(O)OP(=O)(O)O)c(=O)[nH]1 [acyclo-GTP]
Preference for acyclo-GTP over ddGTP ([1]; 9°N (exo-)/A485L, FIG. 9): approximately 9 fold
Preference for insertion, acyclo-GTP versus ddGTP [2]: preference for insertion of acyclo-GTP over ddGTP
Preference for insertion, acyclo-GTP versus ddGTP [3]: preference for insertion of acyclo-GTP over ddGTP

Nc1nc2c(ncn2[C@H]2CC[C@@H](COP(=O)(O)OP(=O)(O)OP(=O)(O)O)O2)c(=O)[nH]1 [ddGTP]
Preference for ddGTP over acyclo-GTP [4]: ~27 fold
Preference for insertion, ddGTP versus acyclo-GTP [5]: strong preference

Nc1ccn([C@H]2CC[C@@H](COP(=O)(O)OP(=O)(O)OP(=O)(O)O)O2)c(=O)n1 [ddCTP]
Enhancement of incorporation, variant compared to parental enzyme [6]: about 10 fold
Enhancement of incorporation, variant compared to parental enzyme ([1]; 9°N (exo-)/A485L vs 9°N (exo-), FIG. 6): about 10 fold

— patent publication US20060199214A1, “Incorporation of modified nucleotides by archaeon DNA polymerases and related methods” (priority 1999, published 2006)
